US12447153B2, “HER2 mutation inhibitors” (Array BioPharma Inc., priority 2021, dated 2025)

What was measured:
ErbB2 WT = ErbB2 WT (Homo sapiens (Human), UniProt P04626); assay: ErbB Enzyme Assay (HTRF KinEASE-TK), Assay 2; format: biochemical
EGFR = EGFR (Homo sapiens (Human), UniProt P00533); assay: ErbB Enzyme Assay (HTRF KinEASE-TK), Assay 3; format: biochemical
[1] = target: ErbB2 with Exon 20 YVMA insertion (HER2-YVMA) (Homo sapiens (Human), UniProt P04626, INS775YVMA); assay: Cellular Phosphorylation Assay, Assay 4 (constitutive ErbB2 phosphorylation, NIH 3T3 cells); format: cell-based
EGFR wild type (EGFR WT) = EGFR wild type (EGFR WT) (Homo sapiens (Human), UniProt P00533); assay: Cellular Phosphorylation Assay, Assay 5 (EGF-stimulated EGFR phosphorylation, NIH 3T3 cells); format: cell-based
BCRP [2] = assay: BCRP MDCKII efflux assay (Assay 7); format: in vitro ADME; settings: dog; efflux ratio Papp(B-A)/Papp(A-B), BCRP MDCKII cells; read-out: Assay 7 Pe Ratio
Procedure: (§1) Assay conditions included with and without the BCRP-specific inhibitor, KO143, at a concentration of 0.3 μM to ascertain the contribution of BCRP to the efflux value of the test compound.
(§2) Final organic concentration in the assay was 1%.

MDR1 (P-gp) = MDR1 (P-gp) (Homo sapiens (Human), UniProt P08183); assay: in vitro; settings: pig, LLC-PK1
[3] = target: BCRP transfected MDCKII cells (Homo sapiens (Human), UniProt Q9UNQ0); assay: BCRP MDCKII efflux assay (Assay 7); format: in vitro ADME; settings: efflux ratio Papp(B-A)/Papp(A-B)
Procedure: as §1, §2

[4] = target: MDR1 (P-gp) transfected LLC-PK1 cells (Homo sapiens (Human), UniProt P08183)
BCRP [5] = target: BCRP (Homo sapiens (Human), UniProt Q9UNQ0); assay: BCRP MDCKII efflux assay (Assay 7); format: in vitro ADME; settings: dog; efflux ratio Papp(B-A)/Papp(A-B), BCRP MDCKII cells; read-out: Assay 7 Pe Ratio
Procedure: as §1, §2

[6] = EGF-stimulated EGFR WT phosphorylation
[7] = cellular ErbB2 YVMA phosphorylation
[8] = cellular EGFR WT phosphorylation, EGF-stimulated

ErbB2 WT, sequence (P04626 23-1255): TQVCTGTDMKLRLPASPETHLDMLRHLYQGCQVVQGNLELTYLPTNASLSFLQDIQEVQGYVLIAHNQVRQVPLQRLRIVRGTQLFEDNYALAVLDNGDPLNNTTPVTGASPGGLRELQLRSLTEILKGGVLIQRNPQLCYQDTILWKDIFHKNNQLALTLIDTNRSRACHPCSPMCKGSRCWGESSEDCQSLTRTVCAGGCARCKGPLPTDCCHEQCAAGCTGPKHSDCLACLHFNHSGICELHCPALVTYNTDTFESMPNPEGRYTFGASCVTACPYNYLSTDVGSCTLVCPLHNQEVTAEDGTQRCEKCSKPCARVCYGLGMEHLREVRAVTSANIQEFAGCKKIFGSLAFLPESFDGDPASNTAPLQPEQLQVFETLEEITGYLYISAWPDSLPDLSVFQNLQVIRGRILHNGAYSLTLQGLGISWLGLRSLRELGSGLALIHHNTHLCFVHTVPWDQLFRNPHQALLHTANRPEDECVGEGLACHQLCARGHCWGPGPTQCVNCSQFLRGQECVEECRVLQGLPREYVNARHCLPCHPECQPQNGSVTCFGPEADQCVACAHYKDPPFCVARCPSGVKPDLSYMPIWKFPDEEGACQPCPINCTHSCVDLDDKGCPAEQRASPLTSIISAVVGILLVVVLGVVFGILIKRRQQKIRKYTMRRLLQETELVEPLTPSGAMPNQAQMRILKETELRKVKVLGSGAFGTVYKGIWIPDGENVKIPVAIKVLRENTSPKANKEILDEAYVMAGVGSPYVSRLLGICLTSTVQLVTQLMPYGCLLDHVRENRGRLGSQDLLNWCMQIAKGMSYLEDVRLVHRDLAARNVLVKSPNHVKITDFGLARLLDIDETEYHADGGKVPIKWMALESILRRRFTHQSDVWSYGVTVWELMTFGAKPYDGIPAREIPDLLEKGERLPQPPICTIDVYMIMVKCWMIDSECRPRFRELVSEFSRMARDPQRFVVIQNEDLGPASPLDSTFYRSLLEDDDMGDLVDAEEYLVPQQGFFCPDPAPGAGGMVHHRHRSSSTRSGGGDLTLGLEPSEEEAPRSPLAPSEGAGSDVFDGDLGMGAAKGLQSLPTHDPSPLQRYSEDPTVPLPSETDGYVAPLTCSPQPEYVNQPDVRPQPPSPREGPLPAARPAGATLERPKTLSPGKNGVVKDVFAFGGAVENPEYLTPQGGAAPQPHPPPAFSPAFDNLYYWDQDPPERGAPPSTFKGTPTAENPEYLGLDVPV
BCRP (Homo sapiens (Human), UniProt Q9UNQ0), sequence (Q9UNQ0 whole entry): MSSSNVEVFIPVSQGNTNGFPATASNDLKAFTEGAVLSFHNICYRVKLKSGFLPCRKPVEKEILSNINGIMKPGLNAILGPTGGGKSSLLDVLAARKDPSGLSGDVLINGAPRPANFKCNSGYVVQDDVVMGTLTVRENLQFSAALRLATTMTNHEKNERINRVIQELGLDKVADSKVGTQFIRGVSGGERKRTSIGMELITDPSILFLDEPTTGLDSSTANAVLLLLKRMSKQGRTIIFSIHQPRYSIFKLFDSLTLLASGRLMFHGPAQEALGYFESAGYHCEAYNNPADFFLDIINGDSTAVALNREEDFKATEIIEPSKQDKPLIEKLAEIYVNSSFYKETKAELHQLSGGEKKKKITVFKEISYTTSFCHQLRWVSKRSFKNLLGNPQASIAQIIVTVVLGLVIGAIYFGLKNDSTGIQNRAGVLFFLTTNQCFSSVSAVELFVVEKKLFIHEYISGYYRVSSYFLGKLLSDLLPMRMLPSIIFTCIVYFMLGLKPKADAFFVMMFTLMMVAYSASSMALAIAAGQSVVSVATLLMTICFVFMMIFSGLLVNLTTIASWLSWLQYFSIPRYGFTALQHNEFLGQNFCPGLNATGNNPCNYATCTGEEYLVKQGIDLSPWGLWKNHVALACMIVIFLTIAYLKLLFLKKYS
MDR1 (P-gp), sequence (P08183 whole entry): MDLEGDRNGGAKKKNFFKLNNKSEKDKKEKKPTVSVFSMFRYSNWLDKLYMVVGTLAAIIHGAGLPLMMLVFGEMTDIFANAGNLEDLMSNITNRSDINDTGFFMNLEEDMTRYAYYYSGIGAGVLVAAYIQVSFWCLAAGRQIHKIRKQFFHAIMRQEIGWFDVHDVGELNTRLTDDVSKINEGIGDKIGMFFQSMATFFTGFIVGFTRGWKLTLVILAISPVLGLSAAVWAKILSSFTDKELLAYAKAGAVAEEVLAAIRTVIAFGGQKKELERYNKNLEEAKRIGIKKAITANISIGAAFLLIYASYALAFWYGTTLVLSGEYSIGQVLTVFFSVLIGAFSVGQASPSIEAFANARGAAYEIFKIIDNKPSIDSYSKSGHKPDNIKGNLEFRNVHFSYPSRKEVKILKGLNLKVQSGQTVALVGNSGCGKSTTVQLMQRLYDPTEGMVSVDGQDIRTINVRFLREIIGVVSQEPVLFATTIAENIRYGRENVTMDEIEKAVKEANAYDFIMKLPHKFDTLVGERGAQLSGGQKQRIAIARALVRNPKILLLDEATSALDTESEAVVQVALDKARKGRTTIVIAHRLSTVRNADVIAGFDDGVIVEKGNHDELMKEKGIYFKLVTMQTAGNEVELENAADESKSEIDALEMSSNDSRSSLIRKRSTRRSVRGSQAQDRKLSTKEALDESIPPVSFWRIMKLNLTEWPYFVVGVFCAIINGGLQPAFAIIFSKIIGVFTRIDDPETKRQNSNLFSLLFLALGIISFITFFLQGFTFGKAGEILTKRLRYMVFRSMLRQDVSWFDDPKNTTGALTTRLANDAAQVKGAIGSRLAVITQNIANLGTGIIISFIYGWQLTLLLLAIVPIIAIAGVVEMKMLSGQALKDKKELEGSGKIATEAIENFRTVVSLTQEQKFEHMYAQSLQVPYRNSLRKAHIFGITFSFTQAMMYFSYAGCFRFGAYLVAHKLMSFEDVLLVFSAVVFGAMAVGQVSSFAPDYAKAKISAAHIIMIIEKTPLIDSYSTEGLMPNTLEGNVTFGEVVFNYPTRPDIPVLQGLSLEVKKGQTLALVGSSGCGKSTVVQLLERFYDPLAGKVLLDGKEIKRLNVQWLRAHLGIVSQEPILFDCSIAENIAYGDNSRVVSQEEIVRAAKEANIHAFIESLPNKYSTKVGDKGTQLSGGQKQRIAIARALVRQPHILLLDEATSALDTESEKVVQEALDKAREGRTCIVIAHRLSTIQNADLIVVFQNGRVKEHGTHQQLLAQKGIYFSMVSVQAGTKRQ
EGFR wild type (EGFR WT), sequence (P00533 25-1210): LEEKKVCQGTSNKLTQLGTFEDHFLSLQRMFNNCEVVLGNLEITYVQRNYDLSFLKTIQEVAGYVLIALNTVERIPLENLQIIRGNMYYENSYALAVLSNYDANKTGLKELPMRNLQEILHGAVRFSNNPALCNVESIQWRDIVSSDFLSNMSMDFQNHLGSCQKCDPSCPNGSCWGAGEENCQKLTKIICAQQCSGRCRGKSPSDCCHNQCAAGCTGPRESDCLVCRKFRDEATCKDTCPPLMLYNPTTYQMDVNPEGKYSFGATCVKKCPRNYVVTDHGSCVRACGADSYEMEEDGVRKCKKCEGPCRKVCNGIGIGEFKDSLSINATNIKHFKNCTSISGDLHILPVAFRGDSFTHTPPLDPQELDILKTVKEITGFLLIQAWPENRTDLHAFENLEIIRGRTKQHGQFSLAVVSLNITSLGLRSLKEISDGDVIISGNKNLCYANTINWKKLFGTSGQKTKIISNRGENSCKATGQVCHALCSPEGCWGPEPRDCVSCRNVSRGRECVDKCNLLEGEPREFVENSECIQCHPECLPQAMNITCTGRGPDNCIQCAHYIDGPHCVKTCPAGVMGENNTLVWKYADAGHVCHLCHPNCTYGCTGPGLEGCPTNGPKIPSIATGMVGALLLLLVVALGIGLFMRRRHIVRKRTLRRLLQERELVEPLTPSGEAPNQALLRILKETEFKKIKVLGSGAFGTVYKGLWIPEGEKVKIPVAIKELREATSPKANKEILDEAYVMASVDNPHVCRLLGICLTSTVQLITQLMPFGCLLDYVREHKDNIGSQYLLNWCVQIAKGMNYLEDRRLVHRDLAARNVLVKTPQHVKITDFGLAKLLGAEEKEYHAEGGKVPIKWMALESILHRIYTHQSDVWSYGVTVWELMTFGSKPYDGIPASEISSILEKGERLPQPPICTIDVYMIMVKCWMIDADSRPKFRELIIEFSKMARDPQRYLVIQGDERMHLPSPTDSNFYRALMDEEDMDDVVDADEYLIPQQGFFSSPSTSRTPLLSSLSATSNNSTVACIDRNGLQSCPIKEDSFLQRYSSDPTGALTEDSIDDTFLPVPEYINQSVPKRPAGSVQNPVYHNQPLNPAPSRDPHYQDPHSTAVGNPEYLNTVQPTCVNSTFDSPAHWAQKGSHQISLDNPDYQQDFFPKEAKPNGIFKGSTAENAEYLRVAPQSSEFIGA
BCRP transfected MDCKII cells, sequence (Q9UNQ0 whole entry): as the sequence (Q9UNQ0 whole entry) above

Compound	IC50 (ErbB2 WT; ErbB2 WT enzyme) [nM]	IC50 (EGFR; EGFR enzyme) [nM]	IC50 ([1]; ErbB2 YVMA phosphorylation) [nM]	IC50 (EGFR wild type (EGFR WT); [6]) [nM]	efflux ratio at 2 h, 1 µM (BCRP [2])	efflux ratio at 2 h, 1 µM (MDR1 (P-gp))	IC50 (ErbB2 WT; ErbB2 WT enzyme assay) [nM]	IC50 (EGFR; EGFR enzyme assay) [nM]	IC50 [1, 7] [nM]	IC50 (EGFR wild type (EGFR WT); [8]) [nM]	Assay 7 Pe Ratio [3]	efflux ratio [4]	efflux ratio at 2 h, 1 µM (BCRP [5])
C=CC(=O)N1C[C@@H]2C[C@H]1C[C@H]2c1ccc2ncnc(Nc3ccc(Oc4ccc5c(c4)ncn5C)c(C)c3F)c2n1 (racemic) [Example 203, rac-1-((1S,4R,5R)-5-(4-((2-fluoro-3-methyl-4-((1-methyl-1H-benzo[d]imidazol-5-yl)oxy)phenyl)amino)pyrido[3,2-d]pyrimidin-6-yl)-2-azabicyclo[2.2.1]heptan-2-yl)prop-2-en-1-one]	13.3	401	16.7	1450	0.6	1.1							
C=CC(=O)N1CC2CCC(C1)N2c1ccc2ncnc(Nc3cc(C)c(Oc4ccn5ncnc5c4)cc3F)c2n1 [Example 454]					0.6	0.8	35.6	1180	14.1	680			
C=CC(=O)N1CCC[C@@H](c2ccc3ncnc(Nc4ccc(Oc5ccc6c(c5)ncn6C)c(C)c4F)c3n2)C1 (racemic) [Example 144, rac-(R)-1-(3-(4-((2-fluoro-3-methyl-4-((1-methyl-1H-benzo[d]imidazol-5-yl)oxy)phenyl)amino)pyrido[3,2-d]pyrimidin-6-yl)piperidin-1-yl)prop-2-en-1-one]	25	650	11.7	1070	0.6	1.2							
C=CC(=O)N1[C@@H]2CC[C@H]1C[C@@H](c1ccc3ncnc(Nc4ccc(Oc5cnc6c(c5)ncn6C)c(C)c4F)c3n1)C2 [Example 227, 1-((1R,3r,5S)-3-(4-((2-fluoro-3-methyl-4-((3-methyl-3H-imidazo[4,5-b]pyridin-6-yl)oxy)phenyl)amino)pyrido[3,2-d]pyrimidin-6-yl)-8-azabicyclo[3.2.1]octan-8-yl)prop-2-en-1-one]	138	3790	26.8	5000							5.5	1.2	
C=CC(=O)N1CCC(Oc2ccc3ncnc(Nc4ccc(Oc5ccc6cn(C)nc6c5)c(C)c4)c3n2)CC1 [Example 3, 1-(4-((4-((3-methyl-4-((2-methyl-2H-indazol-6-yl)oxy)phenyl)amino)pyrido[3,2-d]pyrimidin-6-yl)oxy)piperidin-1-yl)prop-2-en-1-one]	260	≥ 10000	60.6	≥ 5000		2							1.5
CC#CC(=O)N1CC2CCC(C1)N2c1ccc2ncnc(Nc3ccc(Oc4ccn5ncnc5c4)c(C)c3F)c2n1 [Example 246, 1-(8-(4-((4-([1,2,4]triazolo[1,5-a]pyridin-7-yloxy)-2-fluoro-3-methylphenyl)amino)pyrido[3,2-d]pyrimidin-6-yl)-3,8-diazabicyclo[3.2.1]octan-3-yl)but-2-yn-1-one]	34.8	1800	16.2	1300		0.5							1.3
C=CC(=O)N1CCC(c2ccc3ncnc(Nc4ccc(Oc5ccn6ncnc6c5)c(C)c4F)c3n2)CC12CC2 (stereo not drawn) [Example 270]						1.6	21	942	20.1	494			1.1
C=CC(=O)N1[C@H](C)CN(c2ccc3ncnc(Nc4ccc(Oc5cnc6c(c5)ncn6C)c(C)c4F)c3n2)C[C@@H]1C [Example 442]						1	464	≥ 10000	29.7	≥ 5000			1.9
C=CC(=O)N1CCN(c2ccc3ncnc(Nc4cc(Cl)c(Oc5ccn6ncnc6c5)cc4F)c3n2)C[C@@H]1C1CC1 [Example 286]						1	14.8	≥ 10000	16.5	≥ 5000			2
